In brackets after ≈: the same amount, converted by molar mass.
Experiments:
P. stutzeri = assay: Susceptibility testing by Etest on Mueller-Hinton agar (Example 3); assay type: cell-based; conditions: Stutzerimonas stutzeri
Method: (§1) Susceptibility testing was performed using the Etest® (bioMérieux; La Balmes-les-Grottes, France) on Mueller-Hinton agar plates (Becton Dickinson, Le Pont de Chaix, France) at 37° C. and results were recorded according to US guidelines (CLSI), as updated in 2012. The breakpoints for imipenem, meropenem and doripenem are as follows; susceptibility (S)≦2, and resistance (R)≧8 μg/ml.

P. putida = assay: as above; assay type: cell-based; conditions: Pseudomonas putida
Method: as §1

P. fluorescens = assay: as above; assay type: cell-based; conditions: Pseudomonas fluorescens
Method: as §1

C. freundii = assay: MIC of carbapenem by Etest (Example 2); assay type: cell-based, Citrobacter freundii
Method: (§2) All strains had previously been characterized for their β-lactamase content at the molecular level. Minimum inhibitory concentration of carbapenem were determined using the Etest® (AB bioMérieux, Solna, Sweden) and results were recorded according to US guidelines (CLSI), as updated in 2011.

E. asburiae = assay: MIC of carbapenem by Etest (Example 2); assay type: cell-based, Enterobacter asburiae; conditions: E. asburiae IMI-2, n=1
Method: as §2

K. pneumoniae = assay: MIC of carbapenem by Etest (Example 2); assay type: cell-based, Klebsiella pneumoniae
Method: as §2

P. mirabilis = assay: MIC of carbapenem by Etest (Example 2); assay type: cell-based, Proteus mirabilis; conditions: Plasmid mediated AmpC or chromosomal AmpC + decreased membrane permeability; P. mirabilis ACC-1, n=1
Method: as §2

K. ozonae = assay: MIC of carbapenem by Etest (Example 2); assay type: cell-based; conditions: K. ozonae KPC-3, n=1
Method: as §2

Salmonella spp. = assay: MIC of carbapenem by Etest (Example 2); assay type: cell-based; conditions: Salmonella spp. KPC-2, n=1
Method: as §2

E. sakazaki = assay: MIC of carbapenem by Etest (Example 2); assay type: cell-based; conditions: ESBL + decreased membrane permeability; E. sakazaki CTX-M-15, n=1
Method: as §2

P. stuartii = assay: MIC of carbapenem by Etest (Example 2); assay type: cell-based, Providencia stuartii; conditions: P. stuartii NDM-1, n=1
Method: as §2

E. cloacae = assay: MIC of carbapenem by Etest (Example 2); assay type: cell-based, Enterobacter cloacae
Method: as §2

P. rettgeri = assay: MIC of carbapenem by Etest (Example 2); assay type: cell-based, Proteus rettgeri
Method: as §2

S. marcescens = assay: MIC of carbapenem by Etest (Example 2); assay type: cell-based, Serratia marcescens
Method: as §2

M. morganii = assay: MIC of carbapenem by Etest (Example 2); assay type: cell-based, Morganella morganii; conditions: Plasmid mediated AmpC or chromosomal AmpC + decreased membrane permeability; M. morganii Overexpressed cephalosporinase, n=2
Method: as §2

E. aerogenes = assay: MIC of carbapenem by Etest (Example 2); assay type: cell-based, Enterobacter aerogenes
Method: as §2

E. coli = assay: MIC of carbapenem by Etest (Example 2); assay type: cell-based, Escherichia coli
Method: as §2

C[C@@H](O)[C@H]1C(=O)N2C(C(=O)O)=C(S[C@@H]3CN[C@H](C(=O)N(C)C)C3)[C@H](C)[C@H]12 [MER, meropenem]
MIC (P. stutzeri; P. stutzeri 13, DIM-1): > 32 ng/mL | MIC (P. stutzeri; P. stutzeri P511503100, VIM-2): > 32 ng/mL | MIC (P. stutzeri; P. stutzeri PB207, IMP-1): 4 ng/mL (≈ 0.0104 µM) | MIC (P. putida; CIP55, P. putida CIP 55-5, wild type, none): 3 ng/mL (≈ 0.00782 µM) | MIC (P. putida; P. putida 9335, VIM-2): > 32 ng/mL | MIC (P. putida; P. putida NTU 91/99, VIM-2): > 32 ng/mL | MIC (P. putida; P. putida NTU 92/99, IMP-1): 0.19 ng/mL (≈ 0.000495 µM) | MIC (P. fluorescens; P. fluorescens COU, VIM-2): > 32 ng/mL | MIC (P. fluorescens; P. fluorescens, BIC-1): 4 ng/mL (≈ 0.0104 µM) | MICs range (C. freundii; C. freundii KPC-2, n=2): 1.5 to 3 mg/L | MICs range (C. freundii; C. freundii NDM-1, n=1): >32 mg/L | MICs range (C. freundii; ESBL + decreased membrane permeability, C. freundii TEM-3, n=1): 1 mg/L | MICs range (E. asburiae): >32 mg/L | MICs range (K. pneumoniae; ESBL + decreased membrane permeability, K. pneumoniae SHV-2a, n=1): 0.38 mg/L | MICs range (K. pneumoniae; ESBL + decreased membrane permeability, K. pneumoniae SHV-28, n=1): 1 mg/L | MICs range (K. pneumoniae; ESBLs, K. pneumoniae CTX-M-3, n=1): 0.12 mg/L | MICs range (K. pneumoniae; ESBLs, K. pneumoniae CTX-M-14, n=1): 0.12 mg/L | MICs range (K. pneumoniae; ESBLs, K. pneumoniae CTX-M-15, n=3): 0.12 mg/L | MICs range (K. pneumoniae; K. pneumoniae IMP-1, n=5): 1 to 8 mg/L | MICs range (K. pneumoniae; K. pneumoniae IMP-8, n=2): 0.5 mg/L | MICs range (K. pneumoniae; K. pneumoniae KPC-3, n=3): 1 to 8 mg/L | MICs range (K. pneumoniae; K. pneumoniae NDM-4, n=1): >32 mg/L | MICs range (K. pneumoniae; K. pneumoniae OXA-181, n=2): 0.5 to 1 mg/L | MICs range (K. pneumoniae; K. pneumoniae VIM-19, n=1): 4 mg/L | MICs range (K. pneumoniae; Plasmid mediated AmpC or chromosomal AmpC + decreased membrane permeability, K. pneumoniae DHA-1, n=1): >32 mg/L | MICs range (K. pneumoniae; Plasmid mediated AmpC or chromosomal AmpC + decreased membrane permeability, K. pneumoniae DHA-2, n=1): 0.12 mg/L | MICs range (P. mirabilis): 0.12 mg/L | MICs range (K. ozonae): 2 mg/L | MICs range (Salmonella spp.): 0.25 mg/L | MICs range (E. sakazaki): 0.25 mg/L | MICs range (P. stuartii): 1.5 mg/L | MICs range (E. cloacae; E. cloacae GES-5, n=1): >32 mg/L | MICs range (E. cloacae; E. cloacae IMP-8, n=2): 0.5 to 1 mg/L | MICs range (E. cloacae; E. cloacae KPC-2, n=7): 0.75 to 16 mg/L | MICs range (E. cloacae; E. cloacae NDM-1, n=1): 2 mg/L | MICs range (E. cloacae; E. cloacae NMC-A, n=1): 16 mg/L | MICs range (E. cloacae; E. cloacae OXA-48, n=3): 0.5 to 1.5 mg/L | MICs range (E. cloacae; ESBLs, E. cloacae CTX-M-15, n=3): 0.12 mg/L | MICs range (E. cloacae; ESBLs, E. cloacae VEB-1, n=1): 0.12 mg/L | MICs range (P. rettgeri; P. rettgeri NDM-1, n=1): 1.5 mg/L | MICs range (P. rettgeri; P. rettgeri OXA-181, n=1): 2 mg/L | MICs range (S. marcescens; S. marcescens IMP-11, n=1): 2 mg/L | MICs range (S. marcescens; S. marcescens KPC-2, n=2): >32 mg/L | MICs range (S. marcescens; S. marcescens SME-1, n=1): 12 mg/L | MICs range (S. marcescens; S. marcescens SME-2, n=1): 12 mg/L | MICs range (S. marcescens; S. marcescens VIM-2, n=1): >32 mg/L | MICs range (M. morganii): 0.5 mg/L | MICs range (E. aerogenes; E. aerogenes KPC-2, n=1): 8 mg/L | MICs range (E. aerogenes; Plasmid mediated AmpC or chromosomal AmpC + decreased membrane permeability, E. aerogenes Overexpressed cephalosporinase, n=1): 0.75 mg/L | MICs range (E. coli; E. coli IMP-1, n=2): 0.5 to 1 mg/L | MICs range (E. coli; E. coli IMP-8, n=1): 3 mg/L | MICs range (E. coli; E. coli KPC-2, n=5): 0.5 to 2 mg/L | MICs range (E. coli; E. coli NDM-1, n=7): 1 to 16 mg/L | MICs range (E. coli; E. coli OXA-48, n=6): 0.12 to 1 mg/L | MICs range (E. coli; E. coli VIM-1, n=2): 0.5 to 1 mg/L | MICs range (E. coli; E. coli VIM-2, n=2): 0.38 to 0.5 mg/L | MICs range (E. coli; E. coli VIM-19, n=1): 4 mg/L | MICs range (E. coli; ESBLs, E. coli CTX-M-1, n=1): 0.12 mg/L | MICs range (E. coli; ESBLs, E. coli CTX-M-3, n=1): 0.12 mg/L | MICs range (E. coli; ESBLs, E. coli CTX-M-14, n=2): 0.12 mg/L | MICs range (E. coli; ESBLs, E. coli CTX-M-15, n=2): 0.12 mg/L | MICs range (E. coli; ESBLs, E. coli VEB-1, n=1): 0.12 mg/L | MICs range (E. coli; Plasmid mediated AmpC or chromosomal AmpC + decreased membrane permeability, E. coli ACC-1, n=1): 0.12 mg/L | MICs range (E. coli; Plasmid mediated AmpC or chromosomal AmpC + decreased membrane permeability, E. coli CMY-2, n=1): 0.12 mg/L | MICs range (E. coli; Plasmid mediated AmpC or chromosomal AmpC + decreased membrane permeability, E. coli CMY-10, n=1): 0.12 mg/L | MICs range (E. coli; Plasmid mediated AmpC or chromosomal AmpC + decreased membrane permeability, E. coli DHA-1, n=1): 0.12 mg/L | MICs range (E. coli; Plasmid mediated AmpC or chromosomal AmpC + decreased membrane permeability, E. coli Extended spectrum cephalosporinase, n=1): 0.12 mg/L | MICs range (E. coli; Plasmid mediated AmpC or chromosomal AmpC + decreased membrane permeability, E. coli Overexpressed cephalosporinase, n=1): 2 mg/L

Source: patent US9340819B2, “Method for detecting the presence of carbapenemase-producing bacteria in a sample” (priority 2011, dated 2016)
